Results taken from article PMC8151276, “An Integrated Approach toward NanoBRET Tracers for Analysis of GPCR Ligand Engagement” (Molecules, 2021).

Target: T1, CCR8 (Homo sapiens, UniProt P51685)
T1 construct: purchased Promega (in-house HiBiT-GPCR construct library, NanoBRET)
Experiment: NanoBRET screen HiBiT-CCR8 in HEK293
Type: binding
Description: Each tracer candidate was screened across the entire library of HiBiT-GPCR constructs using NanoBRET as the detection modality. As depicted in Figure 4A, the specificity of interactions was evaluated through decrease in BRET due to competitive displacement of a bound tracer by excess parental compound. Each tracer was analyzed for binding to each HiBiT-GPCR fusion in the absence and in the presence of competing parental compound. Briefly, HEK293 cells were transfected with HiBiT-GPCR constructs diluted into promoterless DNA to reduce expression and maximize translocation to the cell surface. Each tracer candidate was then screened at concentrations of 1 μM and 0.1 μM across cells expressing these fusions. Cells were treated for 1.5 h with tracer either alone or in the presence of 20 μM competing parental compound (i.e., control). BRET was measured upon addition of purified LgBiT and subsequent complementation with HiBiT genetically fused to a GPCR. The specificity of interactions was assessed through a decrease in BRET signal due to competitive displacement of the bound tracer. To further gauge the robustness of these interactions, the fold response over the control (i.e., BRETtracer/BRETcontrol) was calculated. We chose a 1.5-fold response, which translates to ≥7-fold signal over noise as the minimal threshold required to score an interaction as positive. […]. Below we highlight the screening results obtained for our exemplary fluorescent tracers based on Clozapine, Amitriptyline and AZD1283.
HiBiT-GPCR DNA constructs were diluted in 10 mM Tris pH 8 to a final concentration of 0.01 μg/μL, arrayed in 96-well plates and stored at −20 °C. For transfection, HEK293 cells were suspended in Opti-MEM (without phenol red) supplemented with 2% fetal bovine serum (Seradigm) and 100 units/mL penicillin–streptomycin (Gibco) at a final concentration of 220,000 cells/mL and dispensed into white 96-well plates at 90 μL/well. Subsequent transfections and screens were carried using an Agilent Bravo Automated Liquid Handling Platform. First, the 96-well HiBiT DNA arrays were diluted 25-fold in Opti-MEM (without serum or phenol red) to a final concentration of 0.0004 μg/μL and 20 μL of the diluted DNAs were transferred into new 96-well plates. Next, promoterless carrier DNA (1 μg/μL) was diluted 25-fold (0.04 μg/μL) and then dispensed into the diluted arrays at 20 μL/well. Following brief mixing, Viafect transfection reagent (Promega) diluted 16-fold into Opti-MEM was dispensed into the plates at 40 μL/well. After mixing by pipetting, plates were incubated for 10 min on the pipetting station deck. The DNA-transfection reagent complexes were then added to plates containing cells. To facilitate the screen, 10 μL of DNA-transfection reagent complexes were added in duplicates to the top 4 and bottom 4 rows, resulting in two identical 48-well arrays per plate. Plates with transfected cells were incubated for 18–20 h at 37 °C/5% CO2. A screen of each tracer across the entire library using two different concentrations requires duplicate plates of transfected cells. Depending on the number of tracers being screened, transfections can be scaled up using the same ratios. The next day, for each tracer, four 20× screening solutions in tracer dilution buffer (Promega) were prepared: two duplicates at final concentration of 20 μM and two duplicates at a final concentration of 2 μM. A competing unmodified compound was added to one of each duplicate at a final concentration of 400 μM. The four resulting solutions were diluted 4-fold in Opti-MEM without serum or phenol red to generate 5× solutions (5 µM and 0.5 µM tracer +/− 100 μM competing compound). To screen the library, a BioTek MultiFlo FX liquid dispenser was used to dispense 22.5 µL of tracer solution to the top 4 rows and 22.5 µL tracer + competing compound solution to the 4 bottom rows. Plates were briefly mixed on an orbital shaker and incubated for 1.5 h at room temperature. […]

T1 sequence (P51685 whole entry): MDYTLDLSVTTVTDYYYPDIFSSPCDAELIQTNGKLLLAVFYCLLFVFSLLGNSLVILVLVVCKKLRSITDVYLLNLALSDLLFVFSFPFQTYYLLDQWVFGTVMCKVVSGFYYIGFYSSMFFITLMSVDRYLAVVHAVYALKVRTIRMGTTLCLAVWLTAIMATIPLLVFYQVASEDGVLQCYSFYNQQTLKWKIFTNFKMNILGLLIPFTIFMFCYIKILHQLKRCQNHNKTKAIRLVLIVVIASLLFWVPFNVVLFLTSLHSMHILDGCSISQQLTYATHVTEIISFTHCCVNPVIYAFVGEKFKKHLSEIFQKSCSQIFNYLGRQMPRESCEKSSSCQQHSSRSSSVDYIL

| SMILES | NanoBRET Fold Response (CCR8, tracer 0.1μM) | NanoBRET Fold Response (CCR8, tracer 1μM) | further results |
| --- | --- | --- | --- |
| O=C(CCc1ccc2n1[B-](F)(F)[N+]1=C(c3ccc[nH]3)C=CC1=C2)NCc1ccc(C(=O)NCCOCCC(=O)N[C@@H]2CC[C@@]3(O)[C@H]4Cc5ccc(O)c6c5[C@@]3(CCN4CC3CC3)[C@H]2O6)cc1 [Naltrexone-3-NB590] | 1.14 | 1.02 |  |
| CCCn1c(=O)c2[nH]c(-c3ccc(OCC(=O)NCCNC(=O)CCOCCNC(=O)c4ccc(CNC(=O)CCc5ccc6n5[B-](F)(F)[N+]5=C(c7ccc[nH]7)C=CC5=C6)cc4)cc3)nc2n(CCC)c1=O [XAC-3-NB590] | 0.90 | 0.93 |  |
| CC(C)N(CC[C@H](c1ccccc1)c1cc(CCNC(=O)c2ccc(CNC(=O)CCc3ccc4n3[B-](F)(F)[N+]3=C(c5ccc[nH]5)C=CC3=C4)cc2)ccc1O)C(C)C [Tolterodine-BZ-NB590] | 0.92 | 1.00 |  |
| COc1ccc2[nH]c(-c3ccc(CNC(=O)CCOCCOCCOCCOCCNC(=O)CCc4ccc5n4[B-](F)(F)[N+]4=C(c6ccc[nH]6)C=CC4=C5)cc3)c(CCNC(C)=O)c2n1 [AzomelatoninICO9-2-NB590] |  |  | NanoBRET Fold Response (0.1μM tracer): 0.68; NanoBRET Fold Response (1μM tracer): 1.10 |
| CN1CCN(C2=Nc3cc(Cl)ccc3N(CC(=O)NCCOCCOCCOCCOCCNC(=O)CCc3ccc4n3[B-](F)(F)[N+]3=C(c5ccc[nH]5)C=CC3=C4)c3ccccc32)CC1 [Clozapine-c-2-NB590] |  |  | NanoBRET Fold Response (CCR8, 0.1μM tracer): 0.97; NanoBRET Fold Response (CCR8, 1μM tracer): 0.96 |
| COc1ccccc1N1CCN(CCCCN2C(=O)c3ccc(CNC(=O)CCOCCNC(=O)c4ccc(CNC(=O)CCc5ccc6n5[B-](F)(F)[N+]5=C(c7ccc[nH]7)C=CC5=C6)cc4)cc3C2=O)CC1 [NAN-190-3-NB590] | 0.67 | 1.01 |  |
| Cc1nc2n(c(=O)c1CCN1CCC(c3noc4cc(F)ccc34)CC1)CCCC2OC(=O)NCCOCCOCCOCCOCCNC(=O)CCc1ccc2n1[B-](F)(F)[N+]1=C(c3ccc[nH]3)C=CC1=C2 (centres unmarked) [Risperidone-2-NB590] | 0.98 | 0.89 |  |
| O=C(CCOCCOCCOCCOCCNC(=O)CCc1ccc2n1[B-](F)(F)[N+]1=C(c3ccc[nH]3)C=CC1=C2)NCCCN1CCN(C2=Nc3ccccc3Oc3ccc(Cl)cc32)CC1 [Loxapine-a-2-NB590] | 1.02 | 1.10 |  |
| COc1ccccc1N1CCN(CCCCN2C(=O)c3ccc(CNC(=O)CCOCCOCCOCCOCCNC(=O)CCc4ccc5n4[B-](F)(F)[N+]4=C(c6ccc[nH]6)C=CC4=C5)cc3C2=O)CC1 [NAN-190-2-NB590] | 0.92 | 0.92 |  |
| CC(C)N(CC[C@H](c1ccccc1)c1cc(CCNC(=O)CCOCCOCCOCCOCCNC(=O)CCc2ccc3n2[B-](F)(F)[N+]2=C(c4ccc[nH]4)C=CC2=C3)ccc1O)C(C)C [Tolterodine-2-NB590] | 0.82 | 1.07 |  |
| N#CN=C(NCCCOc1cccc(CN2CCCCC2)c1)NCCNC(=O)CCOCCOCCOCCOCCNC(=O)CCc1ccc2n1[B-](F)(F)[N+]1=C(c3ccc[nH]3)C=CC1=C2 [Aminopotentidine-2-NB590] | 0.99 | 0.89 |  |
| CCOC(=O)c1cc(C#N)c(N2CCC(C(=O)NS(=O)(=O)Cc3ccccc3/C=C/C(=O)NCCNC(=O)CCc3ccc4n3[B-](F)(F)[N+]3=C(c5ccc[nH]5)C=CC3=C4)CC2)nc1C [AZD1283-1-NB590] |  |  | NanoBRET Fold Response (CCR8, 0.1μM): 1.04; NanoBRET Fold Response (CCR8, 1μM): 1.18 |
| CN(C)CCC=C1c2ccccc2CCc2ccc(C(=O)NCCNC(=O)CCOCCOCCOCCOCCNC(=O)CCc3ccc4n3[B-](F)(F)[N+]3=C(c5ccc[nH]5)C=CC3=C4)cc21 [Amitriptyline-b-2-NB590] |  |  | NanoBRET Fold Response (tracer at 0.1μM, listed as amitriptyline-b-2-NB590): 1.03; NanoBRET Fold Response (tracer at 1μM, listed as amitriptyline-b-2-NB590): 1.03 |
| CN(C)CCC=C1c2ccccc2CCc2ccc(C(=O)NCCNC(=O)CCOCCOCCOCCOCCNC(=O)CCc3ccc4n3[B-](F)(F)[N+]3=C(c5ccc[nH]5)C=CC3=C4)cc21 [Amitriptyline-a-2-NB590] |  |  | NanoBRET Fold Response (tracer at 0.1μM): 0.94; NanoBRET Fold Response (tracer at 1μM): 0.97 |
| O=C(CCc1ccc2n1[B-](F)(F)[N+]1=C(c3ccc[nH]3)C=CC1=C2)NCCOCCOCCNC(=O)OCCOCCN1CCN(C2=Nc3ccccc3Sc3ccccc32)CC1 [Quetiapine-a-2-NB590] | 0.93 | 1.16 |  |
| Cc1cc2c(s1)Nc1ccccc1N=C2N1CCN(CCCNC(=O)CCOCCOCCOCCOCCNC(=O)CCc2ccc3n2[B-](F)(F)[N+]2=C(c4ccc[nH]4)C=CC2=C3)CC1 [Olanzapine-a-2-NB590] | 0.96 | 0.95 |  |
| CN1CCN(C2=Nc3cc(Cl)ccc3Nc3ccc(CNC(=O)CCOCCOCCOCCOCCNC(=O)CCc4ccc5n4[B-](F)(F)[N+]4=C(c6ccc[nH]6)C=CC4=C5)cc32)CC1 [Clozapine-b-2-NB590] |  |  | NanoBRET Fold Response (CCR8, 0.1μM tracer): 0.88; NanoBRET Fold Response (CCR8, 1μM tracer): 0.89 |
| COc1ccc2c(n1)c(CCNC(C)=O)cn2CCNC(=O)CCc1ccc2n1[B-](F)(F)[N+]1=C(c3ccc[nH]3)C=CC1=C2 [Azamelatonin-1-NB590] |  |  | NanoBRET Fold Response (0.1μM tracer): 1.13; NanoBRET Fold Response (1μM tracer): 1.09 |
| CN(CCC=C1c2ccccc2CCc2ccccc21)C(=O)CCOCCOCCOCCOCCNC(=O)CCc1ccc2n1[B-](F)(F)[N+]1=C(c3ccc[nH]3)C=CC1=C2 [Amitriptyline-e-2-NB590] |  |  | NanoBRET Fold Response (tracer at 1μM): 0.79 |
| O=C(CCc1ccc2n1[B-](F)(F)[N+]1=C(c3ccc[nH]3)C=CC1=C2)NCc1ccc(C(=O)NCCOCCOCCNCC(O)COc2cccc3ccccc23)cc1 (centres unmarked) [Propranolol-3-NB590] |  |  | NanoBRET Fold Response (CCR8, 0.1μM): 1.00; NanoBRET Fold Response (CCR8, 1μM): 0.93 |
| O=C(CCOCCOCCOCCOCCNC(=O)CCc1ccc2n1[B-](F)(F)[N+]1=C(c3ccc[nH]3)C=CC1=C2)NCCCN1CCN(C2=Nc3cc(Cl)ccc3Nc3ccccc32)CC1 [Clozapine-a-2-NB590] |  |  | NanoBRET Fold Response (CCR8, 0.1μM tracer): 1.02; NanoBRET Fold Response (CCR8, 1μM tracer): 0.93 |
